Where “and” joins values, the source holds several entries; their conditions need not be identical. Identical values can stand only once. Like-named read-outs stand apart in the source and are kept apart here.
What was measured:
[1] = system: serotonin (5HT) in hypothalamus; experiment: Brain microdialysis: serotonin in hypothalamus; type: in vivo, rats; conditions: 25 mg/kg zonisamide
Description: (§1) 62 adult Sprague-Dawley male rats (Harland, Indianapolis) weighing 300-350 g were used in the following studies. The rats were quarantined for at least five days in group housing. Following the quarantine procedure, rats were maintained in individual cages. For surgical implantation with intracerebral guides, guides were inserted directly above either the hypothalamus (HT) (31 rats), or the medial prefrontal cortex (mPFC) (31 rats). Stereotaxic coordinates (Paxinos and Watson, 1986) provided below were used to position the guide cannulae and/or probes: Animals were anesthetiszed according using standard procedures. The head of each animal was shaved from the front of the eyes to the back of the skull. Shaved areas were disinfected, and the animals were placed in stereotaxic frame ear bars. The animal was aligned with the incisor bar. The animal's scalp was cut with a sharp #15 scalpel blade. If the bone began to bleed, bone wax was applied to the incision. Periosteal tissue was cleaned from the skull to the lateral ridges with a cotton swab, and clamps were used to pull the skin out of the way. The probe or guide was placed in the clamp, such that the angled outlet cannula of the microdialysis probe was angled towards the animal's tail. The target coordinates were calculated, and this point was marked on the skull. Two holes in opposing skull bones were drilled for bone anchor screws and thread screws. The dura was torn away with a sharp, pointed object. The guide cannulae were placed at the dorsal/ventral zero point. […] Using dental acrylic, the cannulae were cemented to the bone anchor screws. The cement was allowed to harden and the rodent was removed from the stereotaxic frame. The cranial and caudal aspects of the incision were sutured. The animals were allowed to recover for three to five days. Stylets in the guides were replaced with dialysis probes on the evening prior to study to allow for animal acclimation and to reestablish the integrity of the blood brain barrier. […] Rats were weighed pre-surgery, every 1-2 days post-surgery until time of microdialysis, and postmortem. Microdialysis probes used in the experiments described below were first soaked in standard Ringer's perfusion medium for 30 minutes. Inlet and outlet tubing was connected to each probe using flanged connectors. The outlet tubing was connected to a fraction collector, and the inlet was connected to and […] syringe drive. The probes were immersed in fresh Ringer's solution and flushed with Ringer's perfusion medium at a rate of 2 μl/min for 1 hour. The probe was then transferred to the intracerebral guide on the rat's skull. […] Water was added to obtain a final concentration of 0.3 mg/ml. […] Zonisamide was dissolved in DMSO. […] The final concentration of zonisamide was 7.5 mg/ml. The drug solution was maintained at 37° C. prior to injection. The rats were divided into ten test groups. Five animals were analyzed for each test group. The test groups were as follows: For the microdialysis experiments, perfusion consisted of 2 μl/min delivery of sterile standard Ringer's solution for intervals of 20 minutes. Final collection volumes were 40 μl. 30 μl samples were analyzed for each analyte: DA, NE, 5HT. 12 pre-dose samples and 12 post dose samples were collected every 20 minutes for a duration of 4 hours, both pre-dose and post-dose. Six samples from the pre-dose and post-dose collections were analyzed for norepinephrine. The remaining six samples from the pre-dose and post-dose collections were analyzed for both dopamine and serotonin. Samples were chilled to -80° C. immediately following collection. The samples were analyzed using liquid chromatography with electrochemical detection using conventional techniques. See, e.g., Huang, T., R. et al. (1994) New […] Microbore Columns for Liquid Chromatography. Current Separations 12(4): 191-195. […] Concentrations of each compound are expressed as % baseline.

[2] = system: serotonin (5HT) in medial prefrontal cortex; experiment: Brain microdialysis: serotonin in mPFC; type: in vivo, rats; conditions: 25 mg/kg zonisamide
Description: as §1

[3] = system: dopamine (DA) in hypothalamus; experiment: Brain microdialysis: dopamine in hypothalamus; type: in vivo, rats; conditions: 25 mg/kg zonisamide
Description: as §1

[4] = system: dopamine (DA) in medial prefrontal cortex; experiment: Brain microdialysis: dopamine in mPFC; type: in vivo, rats; conditions: 25 mg/kg zonisamide
Description: as §1

[5] = system: norepinephrine (NE) in hypothalamus; experiment: Brain microdialysis: norepinephrine in hypothalamus; type: in vivo, rats; conditions: 25 mg/kg zonisamide
Description: as §1

[6] = system: norepinephrine (NE) in medial prefrontal cortex; experiment: Brain microdialysis: norepinephrine in mPFC; type: in vivo, rats; conditions: 25 mg/kg zonisamide
Description: as §1

[7] = system: psychotic patients (bipolar manic state, schizoaffective manic state, schizophrenic excitement); conditions: cited from earlier work; for patients showing remarkable global improvement: addition of zonisamide
[8] = patients presenting with primary obesity; cited from earlier work
[9] = system: carbonic anhydrase; conditions: cited from earlier work

For `NS(=O)(=O)Cc1noc2ccccc12` [zonisamide], the “Serotonin concentrations in hypothalamus” value ([1]; 3 HOUR AVE) was 96.664 % baseline and 96.6637 % baseline, the “Serotonin concentrations in hypothalamus” value ([1]; 40 min post dose) was 139.708 % baseline and the “Serotonin concentrations in hypothalamus” value ([1]; 80 min post dose) was 88.171 % baseline. For the same compound, the “Serotonin concentrations in hypothalamus” value ([1]; 120 min post dose) was 87.586 % baseline, the “Serotonin concentrations in hypothalamus” value ([1]; 160 min post dose) was 64.925 % baseline and the “Serotonin concentrations in hypothalamus” value ([1]; 200 min post dose) was 98.920 % baseline. The “Serotonin concentrations in hypothalamus” value ([1]; 240 min post dose (Table 7)) was 100.672 % baseline, the “Serotonin concentrations in hypothalamus” value ([1]; +220 min post dose) was 100.672 % baseline and the “Serotonin concentrations in hypothalamus” value ([1]; -20 min pre dose) was 133.061 % baseline. The “Serotonin concentrations in hypothalamus” value ([1]; -60 min pre dose) was 79.388 % baseline, the “Serotonin concentrations in hypothalamus” value ([1]; -100 min pre dose) was 87.552 % baseline and the “Serotonin concentrations in mPFC” value ([2]; 3 HOUR AVE) was 77.954 % baseline and 77.9543 % baseline. For the same compound, the “Serotonin concentrations in mPFC” value ([2]; 40 min post dose) was 96.932 % baseline, the “Serotonin concentrations in mPFC” value ([2]; 80 min post dose) was 74.461 % baseline and the “Serotonin concentrations in mPFC” value ([2]; 120 min post dose) was 60.557 % baseline. For the same compound, the “Serotonin concentrations in mPFC” value ([2]; 160 min post dose) was 82.729 % baseline, the “Serotonin concentrations in mPFC” value ([2]; 200 min post dose) was 89.529 % baseline and the “Serotonin concentrations in mPFC” value ([2]; 240 min post dose) was 63.518 % baseline. For the same compound, the “Serotonin concentrations in mPFC” value ([2]; -20 min pre dose) was 107.652 % baseline, the “Serotonin concentrations in mPFC” value ([2]; -60 min pre dose) was 119.648 % baseline and the “Serotonin concentrations in mPFC” value ([2]; -100 min pre dose) was 72.700 % baseline. The “Dopamine concentrations in hypothalamus” value ([3]; 3 HOUR AVE) was 104.3854 % baseline and 105.438 % baseline, the “Dopamine concentrations in hypothalamus” value ([3]; 40 min post dose) was 121.635 % baseline and the “Dopamine concentrations in hypothalamus” value ([3]; 80 min post dose) was 72.946 % baseline. For the same compound, the “Dopamine concentrations in hypothalamus” value ([3]; 120 min post dose) was 91.707 % baseline, the “Dopamine concentrations in hypothalamus” value ([3]; 160 min post dose) was 66.181 % baseline and the “Dopamine concentrations in hypothalamus” value ([3]; 200 min post dose) was 143.010 % baseline. The “Dopamine concentrations in hypothalamus” value ([3]; 240 min post dose) was 123.012 % baseline, the “Dopamine concentrations in hypothalamus” value ([3]; -20 min pre dose) was 142.394 % baseline and the “Dopamine concentrations in hypothalamus” value ([3]; -60 min pre dose) was 56.252 % baseline. For the same compound, the “Dopamine concentrations in hypothalamus” value ([3]; -100 min pre dose) was 101.354 % baseline, the “Dopamine concentrations in mPFC” value ([4]; 3 HOUR AVE) was 117.183 % baseline and the “Dopamine concentrations in mPFC” value ([4]; 40 min post dose) was 166.688 % baseline. The “Dopamine concentrations in mPFC” value ([4]; 80 min post dose) was 86.224 % baseline, the “Dopamine concentrations in mPFC” value ([4]; 120 min post dose) was 111.764 % baseline and the “Dopamine concentrations in mPFC” value ([4]; 160 min post dose) was 109.627 % baseline. For the same compound, the “Dopamine concentrations in mPFC” value ([4]; 200 min post dose) was 94.060 % baseline, the “Dopamine concentrations in mPFC” value ([4]; 240 min post dose) was 134.732 % baseline and the “Dopamine concentrations in mPFC” value ([4]; -20 min pre dose) was 98.672 % baseline. The “Dopamine concentrations in mPFC” value ([4]; -60 min pre dose) was 87.652 % baseline, the “Dopamine concentrations in mPFC” value ([4]; -100 min pre dose) was 113.677 % baseline and the “Norepinephrine concentrations in hypothalamus” value ([5]; 3 HOUR AVE) was 124.221 % baseline and 124.272 % baseline. The “Norepinephrine concentrations in hypothalamus” value ([5]; 20 min post dose) was 194.380 % baseline, the “Norepinephrine concentrations in hypothalamus” value ([5]; 60 min post dose) was 151.267 % baseline and the “Norepinephrine concentrations in hypothalamus” value ([5]; 100 min post dose) was 101.287 % baseline. The “Norepinephrine concentrations in hypothalamus” value ([5]; 140 min post dose) was 99.489 % baseline, the “Norepinephrine concentrations in hypothalamus” value ([5]; 180 min post dose) was 102.237 % baseline and the “Norepinephrine concentrations in hypothalamus” value ([5]; 220 min post dose) was 91.722 % baseline. The “Norepinephrine concentrations in hypothalamus” value ([5]; -40 min pre dose) was 111.356 % baseline, the “Norepinephrine concentrations in hypothalamus” value ([5]; -80 min pre dose) was 88.184 % baseline and the “Norepinephrine concentrations in hypothalamus” value ([5]; -120 min pre dose) was 100.460 % baseline. The “Norepinephrine concentrations in mPFC” value ([6]; 3 HOUR AVE) was 114.112 % baseline and 114.142 % baseline, the “Norepinephrine concentrations in mPFC” value ([6]; 20 min post dose) was 164.376 % baseline and the “Norepinephrine concentrations in mPFC” value ([6]; 60 min post dose) was 102.033 % baseline. The “Norepinephrine concentrations in mPFC” value ([6]; 100 min post dose) was 105.920 % baseline, the “Norepinephrine concentrations in mPFC” value ([6]; 140 min post dose) was 102.114 % baseline and the “Norepinephrine concentrations in mPFC” value ([6]; 180 min post dose) was 115.233 % baseline. The “Norepinephrine concentrations in mPFC” value ([6]; 220 min post dose) was 95.176 % baseline, the “Norepinephrine concentrations in mPFC” value ([6]; -40 min pre dose) was 101.451 % baseline and the “Norepinephrine concentrations in mPFC” value ([6]; -80 min pre dose) was 106.249 % baseline. For the same compound, the “Norepinephrine concentrations in mPFC” value ([6]; -120 min pre dose) was 92.300 % baseline, the “patients showing remarkable global improvement” value ([7]; all the patients (24)) was “Approximately 25%” and the “patients with more than moderate global improvement” value ([7]; all the patients (24)) was “Approximately 71%”. For the same compound, the “patients with more than moderate global improvement” value ([7]; bipolar group) was ~80%, the “patients showing remarkable global improvement” value ([7]; bipolar manic patients) was ~33% and the weight loss [8] was “significant weight loss”. The “inhibitory effect on carbonic anhydrase” value [9] was “weak inhibitory effect”.
